Columns and labels:
[1] = biological target: T1, Amine oxidase [flavin-containing] A (Homo sapiens, UniProt P21397); assay: Inhibition of human MAOA using p-tyramine as substrate at 100 uM after 15 mins by Amplex Red MAO assay; settings: 0.25 h
T1 sequence (P21397 whole entry): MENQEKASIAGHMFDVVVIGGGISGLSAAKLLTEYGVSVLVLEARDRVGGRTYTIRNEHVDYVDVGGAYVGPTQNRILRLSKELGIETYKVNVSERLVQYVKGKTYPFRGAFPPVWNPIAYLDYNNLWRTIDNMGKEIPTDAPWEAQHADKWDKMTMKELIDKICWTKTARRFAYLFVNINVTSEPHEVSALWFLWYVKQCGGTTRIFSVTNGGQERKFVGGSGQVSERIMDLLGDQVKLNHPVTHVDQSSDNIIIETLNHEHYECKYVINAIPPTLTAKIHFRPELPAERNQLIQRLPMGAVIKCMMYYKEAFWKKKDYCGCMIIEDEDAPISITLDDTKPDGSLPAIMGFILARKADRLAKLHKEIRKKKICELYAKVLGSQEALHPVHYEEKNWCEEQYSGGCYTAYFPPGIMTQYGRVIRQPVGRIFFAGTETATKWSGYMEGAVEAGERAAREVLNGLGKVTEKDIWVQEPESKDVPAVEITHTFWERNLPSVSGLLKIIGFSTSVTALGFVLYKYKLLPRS

[2] = biological target: T2, Amine oxidase [flavin-containing] B (Homo sapiens, UniProt P27338); assay: Inhibition of human MAOB using p-tyramine as substrate after 15 mins by Amplex Red MAO assay
T2 sequence (P27338 whole entry): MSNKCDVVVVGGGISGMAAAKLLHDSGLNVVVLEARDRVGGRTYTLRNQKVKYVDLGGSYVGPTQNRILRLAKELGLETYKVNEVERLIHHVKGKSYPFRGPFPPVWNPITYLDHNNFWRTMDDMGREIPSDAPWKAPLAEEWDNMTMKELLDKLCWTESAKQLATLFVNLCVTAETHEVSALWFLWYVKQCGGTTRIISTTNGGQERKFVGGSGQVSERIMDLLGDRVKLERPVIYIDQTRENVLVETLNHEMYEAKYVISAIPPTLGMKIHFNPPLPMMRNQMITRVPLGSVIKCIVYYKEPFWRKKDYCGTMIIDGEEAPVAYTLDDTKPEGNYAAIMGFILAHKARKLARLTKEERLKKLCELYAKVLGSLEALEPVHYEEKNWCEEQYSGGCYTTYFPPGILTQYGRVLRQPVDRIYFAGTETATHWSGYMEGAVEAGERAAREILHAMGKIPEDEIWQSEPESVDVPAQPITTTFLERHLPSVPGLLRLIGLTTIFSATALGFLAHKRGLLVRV

[3] = species on record: Homo sapiens; assay: Selectivity index, ratio of IC50 for human MAOA to IC50 for human MAOB
[4] = biological target: T1, Amine oxidase [flavin-containing] A; assay: Inhibition of MAOA (unknown origin)
[5] = biological target: T2, Amine oxidase [flavin-containing] B; assay: Inhibition of MAOB (unknown origin)
[6] = biological target: T1, Amine oxidase [flavin-containing] A; assay: Inhibition of human MAOA using p-tyramine as substrate after 15 mins by Amplex Red MAO assay
[7] = biological target: T2, Amine oxidase [flavin-containing] B; assay: Competitive inhibition of human MAOB using 50 to 500 uM of p-tyramine as substrate up to 20 nM by Lineweaver-Burk plot analysis
[8] = system: SH-SY5Y; assay: Neurotoxicity against human SH-SY5Y cells assessed as cell viability at 3 to 50 uM after 48 hrs by MTT assay; assay type: toxicity, cell-based
[9] = biological target: T2, Amine oxidase [flavin-containing] B; assay: Reversible inhibition of human MAOB using p-tyramine as substrate preincubated for 60 mins

Compound | inhibition at 100 µM [1] [%] | IC50 [2] [nM] | Ratio IC50 [3] | other results
CC(=O)c1ccc(OCc2ccccc2F)cc1 | 47.1 | 56.9 | > 1760 | 
O=C1CCCc2cc(OCc3ccc(I)cc3)ccc21 |  |  |  | IC50 [4]: 1290 nM; IC50 [5]: 4.5 nM
CC(=O)c1cccc(OCc2ccc([N+](=O)[O-])cc2)c1 |  | 75.4 | 1180 | IC50 [6]: 88300 nM
CC(=O)c1ccc(OCc2cccc([N+](=O)[O-])c2)cc1 |  | 104 | 493 | IC50 [6]: 51300 nM
CC(=O)c1ccc(OCc2ccc(F)cc2)cc1 | 43.5 |  |  | Activity [7]: Active; Activity [8]: Non-toxic
C[C@H](NCc1ccc(OCc2cccc(F)c2)cc1)C(N)=O [SAFINAMIDE] | 9.74 |  |  | 
CC(=O)c1cccc(OCc2cccc(C)c2)c1 | 31.1 | 893 | > 112 | 
CC(=O)c1ccc(OCc2ccc(Br)cc2)cc1 | 23.2 | 85.6 | > 1170 | 
CC(=O)c1cccc(OCc2cccc([N+](=O)[O-])c2)c1 | 17.8 | 114 | > 877 | 
CC(=O)c1ccc(OCc2ccccc2Cl)cc1 |  | 311 | 288 | IC50 [6]: 89600 nM
CC(=O)c1ccc(OCc2ccc([N+](=O)[O-])cc2)cc1 | 33.8 | 96.5 | > 1040 | 
CC(=O)c1ccc(OCc2ccccc2C)cc1 | 42.9 | 77.1 | > 1300 | 
C#CCNCc1cc2cc(OCc3ccccc3)ccc2[nH]1 |  |  |  | IC50 [4]: 790 nM; IC50 [5]: 11 nM
O=C1CCc2ccc(OCc3ccc(Br)cc3)cc2N1 |  |  |  | IC50 [4]: 7980 nM; IC50 [5]: 2.9 nM
CC(=O)c1ccc(OCc2cccc(Cl)c2)cc1 |  |  |  | IC50 [6]: 83300 nM
CC(=O)c1ccc(OCc2cccc(Br)c2)cc1 | 48.3 | 214 | > 467 | 
CC(=O)c1ccc(OCc2cccc(C(F)(F)F)c2)cc1 | 48.9 | 58.2 | > 1720 | 
CC(=O)c1ccc(OCc2ccc(F)c(F)c2)cc1 |  | 67.9 | 1150 | IC50 [6]: 78300 nM
CC(=O)c1cccc(OCc2cccc(F)c2)c1 | 31 | 193 | > 518 | 
CC(=O)c1ccc(OCc2ccc(C)cc2)cc1 | 5.96 | 102 | > 980 | 

Compound | inhibition at 100 µM [1] [%] | IC50 [2] [nM] | Ratio IC50 [3] | other results
CC(=O)c1ccc(OCc2cccc(F)c2)cc1 | 48.4 | 83.1 | > 1200 | 
CC(=O)c1ccc(OCc2ccc(F)cc2F)cc1 | 45.7 | 27.3 | > 3660 | 
CC(=O)c1cccc(OCc2ccccc2)c1 | 31 | 1950 | > 51.3 | 
CC(=O)c1cccc(OCc2cccc(C(F)(F)F)c2)c1 | 46.7 | 21.2 | > 4720 | inhibition (INH) [9]: Active
CC(=O)c1ccc(OCc2ccc(C(F)(F)F)cc2)cc1 | 26.4 | 77.8 | > 1280 | 
CC(=O)c1cccc(OCc2ccc(F)cc2)c1 | 49.6 | 86.4 | > 1160 | 
CC(=O)c1ccc(OCc2cccc(C)c2)cc1 | 32.3 | 86.3 | > 1160 | 
CC(=O)c1ccc(OCc2ccccc2C(F)(F)F)cc1 |  | 183 | 385 | IC50 [6]: 70500 nM
CC(=O)c1cccc(OCc2ccc(C(F)(F)F)cc2)c1 | 27.2 | 43.2 | > 2320 | 
CC(=O)c1ccc(OCc2ccccc2)cc1 | 8.19 | 110 | > 909 | 
CC(=O)c1ccc(OCc2ccccc2[N+](=O)[O-])cc1 | 34 | 284 | > 352 | inhibition (INH) [9]: Active
CC(=O)c1ccc(OCc2cc(F)c(F)c(F)c2)cc1 | 44.3 | 84.1 | > 1190 | 
CC(=O)c1cccc(OCc2cccc(Br)c2)c1 | 49.1 | 96.3 | > 1040 | 
CC(=O)c1cccc(OCc2ccc(Br)cc2)c1 |  |  |  | IC50 [6]: 48700 nM
CC(=O)c1cccc(OCc2ccc(Cl)cc2)c1 |  |  |  | IC50 [6]: 39700 nM; Activity [7]: Active; Activity [8]: Non-toxic
CC(=O)c1ccc(OCc2ccc(Cl)cc2)cc1 |  | 63.2 | 1480 | IC50 [6]: 93600 nM
CC(=O)c1ccc(OCc2ccc(Br)cc2)cc1O |  |  |  | IC50 [4]: 15800 nM; IC50 [5]: 4 nM
CC(=O)c1cccc(OCc2ccc(C)cc2)c1 | 23 | 140 | > 714 | 
CC(=O)c1cccc(OCc2cccc(Cl)c2)c1 |  | 34.2 | 1370 | IC50 [6]: 46800 nM

Reference: ChEMBL document CHEMBL3769324, “Acetophenone derivatives: novel and potent small molecule inhibitors of monoamine oxidase B” (Medchemcomm, 2015)
